Biological target: branched-chain amino acid binding protein (Escherichia coli, UniProt P0AD96)
Assay: Binding of amino acids to branched-chain amino acid binding protein biosensor (microfluidic column sensor)
Conditions: binding affinity of the analyte to the branched-chain amino acid binding protein biosensor; FIG. 9
From the text: FIG. 9(A) illustrates amino acids that bind at varying affinities to a microfluidic column biosensor, where F/F0 is the fluorescence intensity ratio.
Microfluidic column sensors are also useful when the biosensor detects more than one analyte but with different binding affinities. […] This is shown in FIG. 9, where a mixture of these amino acids can be separately detected over the length of the microfluidic column.

Chain of branched-chain amino acid binding protein (P0AD96 24-367): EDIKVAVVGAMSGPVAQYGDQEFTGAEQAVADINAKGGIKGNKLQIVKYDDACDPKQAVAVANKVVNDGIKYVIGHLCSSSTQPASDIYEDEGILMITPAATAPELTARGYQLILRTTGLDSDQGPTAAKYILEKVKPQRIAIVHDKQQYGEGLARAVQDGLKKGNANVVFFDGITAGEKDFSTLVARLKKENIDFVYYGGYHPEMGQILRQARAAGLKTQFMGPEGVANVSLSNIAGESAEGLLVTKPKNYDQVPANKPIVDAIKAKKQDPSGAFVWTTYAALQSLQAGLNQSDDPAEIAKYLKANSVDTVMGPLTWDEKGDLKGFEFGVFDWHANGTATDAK

Compound | Kd [µM]
CC[C@H](C)[C@H](N)C(=O)O [isoleucine] | 68
CC(C)C[C@H](N)C(=O)O [leucine] | 58
CC(C)[C@H](N)C(=O)O [valine] | 135

Source: US20230243815A1, “AN APPARATUS COMPRISING MICROFLUIDIC PROTEIN-BASED SENSORS AND METHODS OF USING SAME” (UNIVERSITY OF MARYLAND, BALTIMORE COUNTY, priority 2020, published 2023)
